Assay results from the supplement of paper PMC13380429.
Structures can show the parent of a compound that is named as a salt.

Legend:
Conditions in all cases: 72 h
[1] = test system: U2OS; test: relative viability EC50 (midpoint between 100% and the lowest measured viability); higher = less toxic
[2] = test system: Caco-2; test: as above
[3] = test system: Vero E6; test: as above
[4] = test system: HepG2; test: as above
[5] = test system: Calu-3; test: as above
[6] = test system: U2OS; test: cell viability relative to DMSO; higher = less toxic
[7] = test system: Caco-2; test: as above
[8] = test system: Vero E6; test: as above
[9] = test system: HepG2; test: as above
[10] = test system: Calu-3; test: as above
[11] = test system: U2OS; test: drug sensitivity score (DSS) for viability; higher = more toxic; extreme values may be limits of the assay
[12] = test system: Caco-2; test: as above
[13] = test system: Vero E6; test: as above
[14] = test system: HepG2; test: as above
[15] = test system: Calu-3; test: as above

Structure (SMILES) | relative viability EC50 [1] | relative viability EC50 [2] | relative viability EC50 [3] | relative viability EC50 [4] | relative viability EC50 [5] | cell viability ([6]; 1 nM) | cell viability ([6]; 10 nM) | cell viability ([6]; 100 nM) | cell viability ([6]; 1000 nM) | cell viability ([6]; 10000 nM) | cell viability ([7]; 1 nM) | cell viability ([7]; 10 nM) | cell viability ([7]; 100 nM) | cell viability ([7]; 1000 nM) | cell viability ([7]; 10000 nM) | cell viability ([8]; 1 nM) | cell viability ([8]; 10 nM) | cell viability ([8]; 100 nM) | cell viability ([8]; 1000 nM) | cell viability ([8]; 10000 nM) | cell viability ([9]; 1 nM) | cell viability ([9]; 10 nM) | cell viability ([9]; 100 nM) | cell viability ([9]; 1000 nM) | cell viability ([9]; 10000 nM) | cell viability ([10]; 1 nM) | cell viability ([10]; 10 nM) | cell viability ([10]; 100 nM) | cell viability ([10]; 1000 nM) | cell viability ([10]; 10000 nM) | drug sensitivity score [11] | drug sensitivity score [12] | drug sensitivity score [13] | drug sensitivity score [14] | drug sensitivity score [15]
CC1(C)CNc2cc(NC(=O)c3cccnc3NCc3ccncc3)ccc21 [motesanib] | > 10 µM | > 10 µM | > 10 µM | > 10 µM | > 10 µM | 103% | 96.7% | 97.9% | 98.9% | 96.8% | 94.6% | 95.5% | 96.8% | 92.1% | 93.2% | 97.3% | 102% | 94.9% | 94% | 96.9% | 95.9% | 94% | 97.4% | 93.5% | 84.9% | 111% | 99.6% | 110% | 110% | 108% | 0 | 0 | 0 | 0.1 | 0
C[C@H](NC(=O)/C(C#N)=C/c1cccc(Br)n1)c1ccccc1 [WP1066] | 3.06 µM | 3.45 µM | 2.96 µM | 2.66 µM | > 10 µM | 102% | 99.2% | 105% | 98.5% | 0.7% | 95.8% | 96.7% | 96.4% | 104% | 20.1% | 97.3% | 96.8% | 98.3% | 97.6% | 15.9% | 100% | 101% | 105% | 94.2% | 10.3% | 102% | 93% | 90.6% | 103% | 75.4% | 5.7 | 4.1 | 5 | 5.8 | 0.8
CN[C@@H]1[C@H](O[C@H]2[C@H](O[C@H]3[C@H](O)[C@@H](O)[C@H](N=C(N)N)[C@@H](O)[C@@H]3N=C(N)N)O[C@@H](C)[C@]2(O)C=O)O[C@@H](CO)[C@H](O)[C@H]1O [STREPTOMYCIN SULFATE [5mM; 10% aq DMSO + 5mM ethanolamine]] | > 10 µM | > 10 µM | > 10 µM | > 10 µM | > 10 µM | 98.7% | 100% | 94.5% | 99.5% | 95.7% | 95% | 106% | 88.5% | 95.7% | 98.1% | 97.8% | 98.5% | 99.9% | 95.2% | 98.3% | 101% | 105% | 102% | 101% | 98.2% | 87.6% | 102% | 86.6% | 91.9% | 91.7% | 0 | 0 | 0 | 0 | 0
CC(C)c1cccc2c1OC(C(C)C)C(=S)N2CC(=O)O (stereo not given) [AD-5467] | > 10 µM | > 10 µM | > 10 µM | > 10 µM | > 10 µM | 102% | 98.5% | 98.9% | 96.5% | 98% | 91.3% | 96.9% | 91.2% | 91.9% | 96.4% | 95.7% | 102% | 93.5% | 99.3% | 95.1% | 93.6% | 97.2% | 98.5% | 98% | 96.6% | 104% | 106% | 92% | 91.1% | 107% | 0 | 0 | 0 | 0 | 0
COc1ccc(CCN(C)CCCN2CCc3cc(OC)c(OC)cc3CC2=O)cc1OC [zatebradine] | > 10 µM | > 10 µM | > 10 µM | > 10 µM | > 10 µM | 101% | 94.5% | 99.1% | 97.6% | 97.6% | 97.2% | 90.5% | 92.9% | 99.6% | 94.4% | 94.1% | 98.4% | 93.4% | 96% | 88% | 105% | 99.4% | 100% | 103% | 97.7% | 97% | 100% | 92.9% | 105% | 94.2% | 0 | 0 | 0 | 0 | 0
C[C@H](CCC(=O)O)[C@H]1CC[C@H]2[C@@H]3C[C@H](O)[C@@H]4C[C@H](O)CC[C@]4(C)[C@H]3CC[C@]12C [Hyodeoxycholic acid (HDCA)] | > 10 µM | > 10 µM | > 10 µM | > 10 µM | > 10 µM | 95.8% | 103% | 105% | 104% | 104% | 88.5% | 100% | 99.3% | 101% | 106% | 92.3% | 95.4% | 95.2% | 94.3% | 108% | 95.6% | 102% | 104% | 93.9% | 106% | 108% | 103% | 87.8% | 107% | 101% | 0 | 0 | 0 | 0 | 0
O=C1C(=O)N(Cc2ccc(Cl)c(Cl)c2)c2ccccc21 [apoptosis-activator-II] | 2.5 µM | > 10 µM | > 10 µM | > 10 µM | > 10 µM | 99.2% | 98.9% | 94% | 94.4% | 30.2% | 91.6% | 104% | 93.3% | 96.7% | 84.5% | 106% | 102% | 103% | 102% | 87.8% | 103% | 98% | 108% | 107% | 84.5% | 95.7% | 93% | 103% | 92.6% | 89% | 4.7 | 0.2 | 0 | 0.1 | 0
